The data set is described as follows: UV spectrum: absorption maxima, molar extinction coefficient and K value. As to conditions: for εM: in M-1·cm-1 (unit assumed); for UV absorption peaks: does not depend on the solvent nature and pH values. The class given is physicochemical.

The values below come from patent US20040009197A1 (priority 2000, published 2004).

“And” between values parts separate entries of the source, which are not always exact repeats. Equal values may be shown once. Read-outs that look alike come from different tables or passages of the source.

On to `CC(C)c1ccc(C(=O)CC(=O)c2ccccc2)cc1` [4-isopropyl dibenzoyl methane, 1-p-cumenyl-3-phenylpropane-1,3-dione], for which, for the setting “Solvent system Ethanol”, the Max ads. is reported as 345. The same measure, in the same setting: the value for `Nc1ccc(C(=O)O)cc1` [PABA, 4-amino benzoic acid] was 283; that for `CCCCC(CC)COC(=O)c1ccccc1O` (stereo not shown) [Octyl salicylate, 2-ethylhexyl salicylate] was 307. On to 3,4,5-trihydroxystilbene [Resveratrol], for which the UV absorption peaks is 216 nm and 305 nm and 309 nm. Further, the εM (at 216 nm) was 19,836. Besides, the εM (at 305 nm) is given as 28,044. Besides, the εM (at 309 nm) is given as 27,816. Under “listed as resveratrol”, the UV absorption peaks was 305 nm and 309 nm.

Under “Solvent system Ethanol”, `Cc1ccc(C=C2C(=O)C3(C)CCC2C3(C)C)cc1` (stereo not shown) [3-(4-methylbenzylidene)-camphor, 3-(4-methylbenzylidene)-bornan-2-one] registered a Max ads. of 300. Compound `CC1CC(OC(=O)c2ccccc2O)CC(C)(C)C1` (stereo not shown) [Homosalate, 3,3,5-trimethyl cyclohexyl-2-h drox benzoate] showed a Max ads. (Solvent system Ethanol) of 306.

In the case of `CCOC(=O)c1ccc(N(CC(C)O)CC(C)O)cc1` (stereo not shown) [Ethyl dihydroxypropyl PABA, Ethyl-4-bis(2-hydroxypropyl)amino benzoic acid], the K value is 119, the Max ads. is listed as 311 and the “εM (Molar extinction coefficient)” value is given as 27,000. Regarding `COc1ccc(C(=O)CC(=O)c2ccc(C(C)(C)C)cc2)cc1` [Butyl methoxy dibenzoyl methane, 4-t-butyl-4′-methoxydibenzoyl methane], under “Solvent system Ethanol”, the Max ads. is recorded as 358. Same read-out and setting: in the case of `Nc1ccc(C(=O)OCC(O)CO)cc1` (stereo not shown) [Glyceryl PABA, 1,2,3-propanetriol,] it was 297; in that of `CCCCC(CC)COC(=O)C=Cc1ccc(OC)cc1` (stereo not shown) [Octyl methoxycinnamate, 2-ethylhexyl-p-methoxycinnamate], 311.

As to “Diethanolamine methoxy hydroxycinnamate [DEA methoxycinnamate]”, the K value was 79. Compound `CCCCC(CC)COC(=O)c1ccc(N(C)C)cc1` (stereo not shown) [Octyl dimethyl PABA, 2-ethylbexyl p-dimethylaminobenzoate] had a Max ads. (Solvent system Ethanol) of 311. `O=S(=O)(O)c1ccc2nc(-c3ccccc3)[nH]c2c1` [Novantisol, 2-phenyl-benzimidazole-5-sulphonic acid]: the Max ads. (0,1 N NaOH) was 305.
